Results taken from patent publication US7998973B2 (AVEO Pharmaceuticals, Inc., priority 2009, dated 2011).
Where two headings read alike, the source gives them in different places.

Key:
[1] = pharmacokinetics in the human body; type: in vivo; details: for accumulation: human
Excerpt: Serum levels reach steady state after about 2-3 weeks.
Therefore, […] is expected to exert physiological effects after temsirolimus has been cleared.

VEGF receptor 3 = VEGF receptor 3 (Homo sapiens, UniProt P35916); details: cited from earlier work
[2] = preclinical models; cited from earlier work
[3] = cited from earlier work
[4] = cited from earlier work; remark: listed apart in the source

VEGF receptor 3, sequence (P35916 25-1363): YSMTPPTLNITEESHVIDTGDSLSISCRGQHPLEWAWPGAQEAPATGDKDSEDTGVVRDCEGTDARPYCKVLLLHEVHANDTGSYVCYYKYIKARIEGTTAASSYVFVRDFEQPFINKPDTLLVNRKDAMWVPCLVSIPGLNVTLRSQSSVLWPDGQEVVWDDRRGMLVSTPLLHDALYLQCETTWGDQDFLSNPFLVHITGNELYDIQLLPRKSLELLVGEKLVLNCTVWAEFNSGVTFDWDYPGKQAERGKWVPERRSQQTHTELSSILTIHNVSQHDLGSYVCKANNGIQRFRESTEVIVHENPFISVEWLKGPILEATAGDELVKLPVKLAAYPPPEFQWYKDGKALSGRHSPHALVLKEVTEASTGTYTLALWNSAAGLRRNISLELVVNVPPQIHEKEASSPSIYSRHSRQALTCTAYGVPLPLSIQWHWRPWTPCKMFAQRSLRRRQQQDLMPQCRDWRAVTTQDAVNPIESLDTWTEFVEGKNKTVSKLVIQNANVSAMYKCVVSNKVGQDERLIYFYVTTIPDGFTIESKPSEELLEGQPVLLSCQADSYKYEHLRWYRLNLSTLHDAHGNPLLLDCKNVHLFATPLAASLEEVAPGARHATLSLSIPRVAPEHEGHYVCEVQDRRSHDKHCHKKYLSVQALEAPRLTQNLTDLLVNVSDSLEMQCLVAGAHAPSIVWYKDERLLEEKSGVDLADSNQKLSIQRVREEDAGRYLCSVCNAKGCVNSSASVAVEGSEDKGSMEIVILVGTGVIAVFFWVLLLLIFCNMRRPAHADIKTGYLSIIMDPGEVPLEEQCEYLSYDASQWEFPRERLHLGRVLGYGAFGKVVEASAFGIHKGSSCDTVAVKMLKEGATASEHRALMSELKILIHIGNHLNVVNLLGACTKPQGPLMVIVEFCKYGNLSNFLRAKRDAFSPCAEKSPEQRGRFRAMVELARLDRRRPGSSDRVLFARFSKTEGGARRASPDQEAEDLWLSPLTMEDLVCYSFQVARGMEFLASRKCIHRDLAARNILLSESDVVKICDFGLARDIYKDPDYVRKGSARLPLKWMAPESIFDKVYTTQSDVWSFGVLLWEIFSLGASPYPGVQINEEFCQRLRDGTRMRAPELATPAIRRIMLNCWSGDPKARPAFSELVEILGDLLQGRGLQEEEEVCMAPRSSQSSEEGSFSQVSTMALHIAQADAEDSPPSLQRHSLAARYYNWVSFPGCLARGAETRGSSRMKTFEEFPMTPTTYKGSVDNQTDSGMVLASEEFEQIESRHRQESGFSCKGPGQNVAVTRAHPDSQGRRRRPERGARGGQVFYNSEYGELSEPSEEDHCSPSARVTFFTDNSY

Compound | time for serum levels to reach steady state ([1]; chronic dosing) | accumulation [1] | half-life ([1]; serum, human body) | inhibitory activity (VEGF receptor 3) | antitumor activity [2] | interim results ([3]; 272-patient Phase 2 clinical trial) | most common side effects ([3]; Phase 1 and Phase 2 clinical trials) | dose at which safety had been established ([3]; previous trials, 4 weeks on, 2 weeks off or 3 weeks on, 1 week off) | half-life relative to parent compound temsirolimus ([4]; primary metabolite of temsirolimus) | half-life ([4]; human body)
COc1cc2nccc(Oc3ccc(NC(=O)Nc4cc(C)on4)c(Cl)c3)c2cc1OC [tivozanib, N-{2-chloro-4-[(6,7-dimethoxy-4-quinolyl)oxy]-phenyl}-N′-(5-methyl-3-isoxazolyl)urea] | 2-3 weeks | accumulates in the serum after chronic dosing to a degree that would be expected based on its half-life | 91.2 to 113 h | picomolar inhibitory activity | exhibits antitumor activity | positive interim results | hypertension and dysphonia | 1.5 mg/day |  | 
CO[C@H]1C[C@@H]2CC[C@@H](C)[C@@](O)(O2)C(=O)C(=O)N2CCCC[C@H]2C(=O)O[C@H]([C@H](C)C[C@@H]2CC[C@@H](O)[C@H](OC)C2)CC(=O)[C@H](C)/C=C(\C)[C@@H](O)[C@@H](OC)C(=O)[C@H](C)C[C@H](C)/C=C/C=C/C=C/1C [sirolimus] |  |  |  |  |  |  |  |  | about three times that of the parent compound | 
CO[C@H]1C[C@@H]2CC[C@@H](C)[C@@](O)(O2)C(=O)C(=O)N2CCCC[C@H]2C(=O)O[C@H]([C@H](C)C[C@@H]2CC[C@@H](OC(=O)C(C)(CO)CO)[C@H](OC)C2)CC(=O)[C@H](C)/C=C(\C)[C@@H](O)[C@@H](OC)C(=O)[C@H](C)C[C@H](C)/C=C/C=C/C=C/1C [temsirolimus, 42-(3-hydroxy-2-(hydroxymethyl)-2-methylpropanoate) rapamycin] |  | does not appear to accumulate more than would be expected based on its half life |  |  |  |  |  |  |  | approximately 17 hours
